#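 How tested: cells in 96-well plates exposed to compound for 48 hours at five concentrations. GI50 marks 50% less growth.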 The source made the active and inactive calls. Cut-off read from the data, not from the text of the source: active = GI50 up to about 1.1 µM and inactive = higher.
# What was measured:
# Assay in all cases: NCI-60 cell line screen, 48 h
# [1] = test system: OVCAR-4
# [2] = test system: SK-MEL-5
# [3] = test system: A498
# [4] = test system: 786-0
# [5] = test system: DLD-1
# [6] = test system: ACHN
# [7] = test system: SK-MEL-2
# [8] = test system: HL-60
# [9] = test system: IGROV-1
# [10] = test system: HT-29
# [11] = test system: LOX IMVI
# [12] = test system: SF-268
# [13] = test system: DMS-114
# [14] = test system: OVCAR-5
# [15] = test system: KM12
# [16] = test system: TK-10
# [17] = test system: SF-295
# [18] = test system: SK-MEL-28
# [19] = test system: SNB-19
# [20] = test system: MOLT-4
# [21] = test system: NCI-H226
# [22] = test system: OVCAR-8
# [23] = test system: Malme-3M
# [24] = test system: UACC-62
# [25] = test system: EKVX
# [26] = test system: SN12C
# [27] = test system: CCRF-CEM
# [28] = test system: UO-31
# [29] = test system: M19-MEL
# [30] = test system: U-251
# [31] = test system: NCI-H522
# [32] = test system: CAKI-1
# [33] = test system: SK-OV-3
# [34] = test system: HOP-18
# [35] = test system: RXF 393
# [36] = test system: SW-620
# [37] = test system: DMS-273
# [38] = test system: HCC 2998
# [39] = test system: HOP-62
# [40] = test system: SNB-75
# [41] = test system: COLO 205
# [42] = test system: SNB-78
# [43] = test system: A549
# [44] = test system: M14
# [45] = test system: K562
# [46] = test system: NCI-H23
# [47] = test system: HCT-15
# [48] = test system: OVCAR-3
# [49] = test system: RPMI-8226
# [50] = test system: RXF 631
# [51] = test system: LXFL 529
# [52] = test system: SF-539
# [53] = test system: UACC-257
# [54] = test system: XF498
# [55] = test system: HCT-116
# [56] = test system: KM-20L2
# [57] = test system: HOP-92
# [58] = test system: SR
# [59] = test system: NCI-H460
smiles,measurement,setting,value
Cc1ccccc1-n1c(N)c(-c2nc3ccccc3[nH]2)sc1=S,GI50,[1],28.8 µM (inactive)
same,GI50,[2],20.8 µM (inactive)
same,GI50,[3],40.1 µM (inactive)
same,GI50,[4],30.1 µM (inactive)
same,GI50,[5],27.3 µM (inactive)
same,GI50,[6],35 µM (inactive)
same,GI50,[7],23.9 µM (inactive)
same,GI50,[8],26.1 µM (inactive)
same,GI50,[9],24.8 µM (inactive)
same,GI50,[10],19.6 µM (inactive)
same,GI50,[11],28.1 µM (inactive)
same,GI50,[12],29.6 µM (inactive)
same,GI50,[13],24.2 µM (inactive)
same,GI50,[14],37 µM (inactive)
same,GI50,[15],20.7 µM (inactive)
same,GI50,[16],39.3 µM (inactive)
same,GI50,[17],22.6 µM (inactive)
same,GI50,[18],20 µM (inactive)
same,GI50,[19],24.9 µM (inactive)
same,GI50,[20],27.7 µM (inactive)
same,GI50,[21],36 µM (inactive)
same,GI50,[22],32.8 µM (inactive)
same,GI50,[23],21.5 µM (inactive)
same,GI50,[24],18.8 µM (inactive)
same,GI50,[25],53.5 µM (inactive)
same,GI50,[26],26.4 µM (inactive)
same,GI50,[27],36.5 µM (inactive)
same,GI50,[28],23.8 µM (inactive)
same,GI50,[29],23.3 µM (inactive)
same,GI50,[30],> 10 µM (inactive)
same,GI50,[31],21.3 µM (inactive)
same,GI50,[32],37.8 µM (inactive)
same,GI50,[33],43.4 µM (inactive)
same,GI50,[34],30.2 µM (inactive)
same,GI50,[35],30.1 µM (inactive)
same,GI50,[36],31.1 µM (inactive)
same,GI50,[37],18.9 µM (inactive)
same,GI50,[38],18.3 µM (inactive)
same,GI50,[39],25 µM (inactive)
same,GI50,[40],29.4 µM (inactive)
same,GI50,[41],22.6 µM (inactive)
same,GI50,[42],32.4 µM (inactive)
same,GI50,[43],31.3 µM (inactive)
same,GI50,[44],20.5 µM (inactive)
same,GI50,[45],36.6 µM (inactive)
same,GI50,[46],23.3 µM (inactive)
same,GI50,[47],34.7 µM
same,GI50,[48],20 µM (inactive)
same,GI50,[49],23.1 µM (inactive)
same,GI50,[50],24.9 µM (inactive)
same,GI50,[51],22.1 µM (inactive)
same,GI50,[52],24.1 µM (inactive)
same,GI50,[53],19.3 µM (inactive)
CO/C=C/c1cc2c(cc1C(OC)OC)OCO2,GI50,[1],> 100 µM (inactive)
same,GI50,[2],17.4 µM (inactive)
same,GI50,[4],42.6 µM (inactive)
same,GI50,[5],36.1 µM (inactive)
same,GI50,[6],83.4 µM (inactive)
same,GI50,[7],82.2 µM (inactive)
same,GI50,[54],33.4 µM (inactive)
same,GI50,[8],3.56 µM (inactive)
same,GI50,[9],60.1 µM (inactive)
same,GI50,[10],39.4 µM (inactive)
same,GI50,[55],27.5 µM (inactive)
same,GI50,[56],35.2 µM (inactive)
same,GI50,[57],40.2 µM (inactive)
same,GI50,[12],52.1 µM (inactive)
same,GI50,[13],32.9 µM (inactive)
same,GI50,[14],52.8 µM (inactive)
same,GI50,[15],52.6 µM (inactive)
same,GI50,[16],55 µM (inactive)
same,GI50,[18],> 100 µM (inactive)
same,GI50,[19],36.7 µM (inactive)
same,GI50,[20],33.7 µM (inactive)
same,GI50,[21],57 µM (inactive)
same,GI50,[22],> 100 µM (inactive)
same,GI50,[23],53.6 µM (inactive)
same,GI50,[24],22.6 µM (inactive)
same,GI50,[25],69.7 µM (inactive)
same,GI50,[26],79.3 µM (inactive)
same,GI50,[27],39.7 µM (inactive)
same,GI50,[28],26.5 µM (inactive)
same,GI50,[29],76.4 µM (inactive)
same,GI50,[30],53.3 µM (inactive)
same,GI50,[58],44.6 µM (inactive)
same,GI50,[31],> 100 µM (inactive)
same,GI50,[32],29.5 µM (inactive)
same,GI50,[33],26.1 µM (inactive)
same,GI50,[35],40.9 µM (inactive)
same,GI50,[36],50 µM (inactive)
same,GI50,[37],30.3 µM (inactive)
same,GI50,[38],> 100 µM (inactive)
same,GI50,[39],26.7 µM (inactive)
same,GI50,[40],16.4 µM (inactive)
same,GI50,[42],> 100 µM (inactive)
same,GI50,[43],> 100 µM (inactive)
same,GI50,[44],31.1 µM (inactive)
same,GI50,[45],29.9 µM (inactive)
same,GI50,[46],54 µM (inactive)
same,GI50,[48],29.9 µM (inactive)
same,GI50,[50],43.7 µM (inactive)
same,GI50,[59],36 µM (inactive)
same,GI50,[52],34.7 µM (inactive)
same,GI50,[53],> 100 µM (inactive)
Cc1ccc(NC(=O)c2c(C)nc(=O)n3c2N(/N=C/c2ccc(Cl)cc2)CC3)cc1,GI50,[1],14.4 µM (inactive)
same,GI50,[3],15.9 µM (inactive)
same,GI50,[4],17.8 µM (inactive)
same,GI50,[5],16.6 µM (inactive)
same,GI50,[6],16.3 µM (inactive)
same,GI50,[7],18.7 µM (inactive)
same,GI50,[54],15.6 µM (inactive)
same,GI50,[8],23.1 µM (inactive)
same,GI50,[9],18.2 µM (inactive)
same,GI50,[55],13.2 µM (inactive)
same,GI50,[57],20 µM (inactive)
same,GI50,[12],12.7 µM (inactive)
same,GI50,[13],16.5 µM (inactive)
same,GI50,[18],16.3 µM (inactive)
same,GI50,[20],23.8 µM (inactive)
same,GI50,[21],16 µM (inactive)
same,GI50,[23],21.4 µM (inactive)
same,GI50,[24],13.4 µM (inactive)
same,GI50,[26],14.7 µM (inactive)
same,GI50,[27],26.9 µM (inactive)
same,GI50,[28],11.7 µM (inactive)
same,GI50,[29],19.9 µM (inactive)
same,GI50,[58],24.5 µM (inactive)
same,GI50,[31],10.4 µM (inactive)
same,GI50,[32],18.2 µM (inactive)
same,GI50,[33],21.3 µM (inactive)
same,GI50,[37],19.2 µM (inactive)
same,GI50,[38],17.9 µM (inactive)
same,GI50,[39],18.7 µM (inactive)
same,GI50,[40],18.8 µM (inactive)
same,GI50,[41],21.7 µM (inactive)
same,GI50,[42],19.8 µM (inactive)
same,GI50,[44],17.1 µM (inactive)
same,GI50,[45],26.7 µM (inactive)
same,GI50,[46],14.2 µM (inactive)
same,GI50,[49],> 10 µM (inactive)
same,GI50,[50],14.7 µM (inactive)
same,GI50,[51],16.8 µM (inactive)
same,GI50,[52],11.9 µM (inactive)
O=C(NCCCCNc1cccccc1=O)OCc1ccccc1,GI50,[1],> 100 µM (inactive)
same,GI50,[2],48.1 µM (inactive)
same,GI50,[3],> 100 µM (inactive)
same,GI50,[4],> 100 µM (inactive)
same,GI50,[5],> 100 µM (inactive)
same,GI50,[6],> 100 µM (inactive)
same,GI50,[7],> 100 µM (inactive)
same,GI50,[8],> 100 µM (inactive)
same,GI50,[9],> 100 µM (inactive)
same,GI50,[10],> 100 µM (inactive)
same,GI50,[11],> 100 µM (inactive)
same,GI50,[55],> 100 µM (inactive)
same,GI50,[56],> 100 µM (inactive)
same,GI50,[12],> 100 µM (inactive)
same,GI50,[13],56.4 µM (inactive)
same,GI50,[14],> 100 µM (inactive)
same,GI50,[15],> 100 µM (inactive)
same,GI50,[16],> 100 µM (inactive)
same,GI50,[17],> 100 µM (inactive)
same,GI50,[18],> 100 µM (inactive)
same,GI50,[19],> 100 µM (inactive)
same,GI50,[20],> 100 µM (inactive)
same,GI50,[21],> 100 µM (inactive)
same,GI50,[22],54 µM (inactive)
same,GI50,[23],> 100 µM (inactive)
same,GI50,[24],> 100 µM (inactive)
same,GI50,[25],> 100 µM (inactive)
same,GI50,[26],> 100 µM (inactive)
same,GI50,[27],> 100 µM (inactive)
same,GI50,[28],58.5 µM (inactive)
same,GI50,[29],> 100 µM (inactive)
same,GI50,[30],> 100 µM (inactive)
same,GI50,[31],> 100 µM (inactive)
same,GI50,[32],> 100 µM (inactive)
same,GI50,[33],> 100 µM (inactive)
same,GI50,[34],> 100 µM (inactive)
same,GI50,[36],> 100 µM (inactive)
same,GI50,[37],> 100 µM (inactive)
same,GI50,[38],> 100 µM (inactive)
same,GI50,[39],> 100 µM (inactive)
same,GI50,[40],> 100 µM (inactive)
same,GI50,[41],> 100 µM (inactive)
same,GI50,[42],> 100 µM (inactive)
same,GI50,[43],> 100 µM (inactive)
same,GI50,[44],> 100 µM (inactive)
same,GI50,[45],> 100 µM (inactive)
same,GI50,[46],> 100 µM (inactive)
same,GI50,[47],> 100 µM
same,GI50,[48],> 100 µM (inactive)
same,GI50,[49],> 100 µM (inactive)
same,GI50,[50],> 100 µM (inactive)
same,GI50,[59],> 100 µM (inactive)
same,GI50,[51],> 100 µM (inactive)
same,GI50,[53],> 100 µM (inactive)
